Experimental data taken from US8785630B2, “Insecticidal triazines and pyrimidines” (Vestaron Corporation, priority 2011, dated 2014).

test system: beet armyworm (Spodoptera exigua); assay: Insecticidal test for beet armyworm, treated diet surface; type: in vivo; conditions: 100 μg/cm^2 on diet surface, first instar larvae, 32 insects per treatment, observations 24, 48 and 96 hours
Method: The compounds identified in Table 8 were prepared according to the previous methods and were tested against beet armyworm and corn earworm as follows:
Insecticidal Test for Beet Armyworm (Spodoptera exigua).
To prepare the test solution, the test compound was Formulated at 3499 ppm in solution as 5 mg compound/1.429 mL of 9 parts acetone: 1 part deionized H2O and vortexed to homogenize. 50 μL of the 3499 ppm (equivalent to 100 μg/cm^2 dose on diet surface area) test solution was pipetted upon the surface of 1 mL of solidified cool Southland Products Incorporated Beet Armyworm Diet (201 Stuart Island Road Lake Village, Ark. 71653) using an Eppendorf Repeater Plus with a 1 mL pipette tip. All pipetting of treatments was done in a Labconco Hood. Thirty minutes were allowed for the acetone to evaporate leaving a dose of 100 μg/cm^2 on the surface of the artificial diet. Two 24 hour old first instar Beet Armyworm (Spodoptera Exigua) larvae were placed in each well of the 128 well Bio-BA 128 Bioassay trays (CD International, Pitman, N.J., 08071, USA) using a #0 fine camel hair paint brush. Bioassay trays were sectioned into treatment groups of 8 with 16 replicates per treatment group (32 insects per treatment). Trays containing the treated diet and larvae were covered with a Bio-CV-16 cover (CD International, Pitman, N.J., 08071, USA) and then placed on a rack under florescent lights at 27° C., 20% relative humidity (RH) in the room, and 16 hr light: 8 hr dark for 96 hours. Observations were made 24, 48 and 96 hours after treatment and infestation. The number of insects dead were counted out of the 32 insects total per treatment and the results are given in a table as a percent mortality at a dose of 100 μg/cm^2. When finished, the tray was moved to the −5° C. freezer and left for 24 hr to insure mortality of the remaining S. exigua. After 24 hours, dispose of entire tray into waste bin.
Keys to the table: Mortality refers to activity against beet army worm (Spodoptera exigua) as defined above at the concentration of 100 μg/cm^2 (A=76-100% mortality, B=51-75% mortality, C=26-50% mortality and D=0-25% mortality).

Row | SMILES | mortality at 100 µg/cm2 [%]
1 | Fc1cccc(F)c1-c1nc(NN=Cc2ccc(OC(F)(F)F)cc2)nc(Nc2ccc(Cl)cc2)n1 [Example 1, N-(4-chlorophenyl)-4-(2,6-difluorophenyl)-6-(2-(4-(trifluoromethoxy)benzylidene)hydrazinyl)-1,3,5-triazin-2-amine] | 76 to 100
2 | FC(F)(F)Oc1ccc(C=NNc2nc(Nc3ccc(Cl)cc3)nc(-c3ccccc3)n2)cc1 [Example 2, N-(4-chlorophenyl)-4-phenyl-6-(2-(4-(trifluoromethoxy)benzylidene)hydrazinyl)-1,3,5-triazin-2-amine] | 76 to 100
3 | FC(F)(F)Oc1ccc(C=NNc2nc(Nc3ccc(Cl)cc3)nc(-c3ccc(OC(F)(F)F)cc3)n2)cc1 [Example 3, N-(4-chlorophenyl)-4-(2-(4-(trifluoromethoxy)benzylidene)hydrazinyl)-6-(4-(trifluoromethoxy)phenyl)-1,3,5-triazin-2-amine] | 26 to 50
4 | Fc1cccc(Cl)c1-c1nc(NN=Cc2ccc(OC(F)(F)F)cc2)nc(Nc2ccc(Cl)cc2)n1 [Example 4] | 76 to 100
5 | Fc1ccc(Nc2nc(NN=Cc3ccc(OC(F)(F)F)cc3)nc(-c3c(F)cccc3F)n2)cc1C(F)(F)F [Example 5, 4-(2,6-difluorophenyl)-N-(4-fluoro-3-(trifluoromethyl)phenyl)-6-(2-(4-(trifluoromethoxy)benzylidene)hydrazinyl)-1,3,5-triazin-2-amine] | 26 to 50
6 | Fc1cccc(F)c1-c1nc(NN=Cc2ccc(OC(F)(F)F)cc2)nc(Nc2ccc(OC(F)(F)F)cc2)n1 [Example 6, 4-(2,6-difluorophenyl)-6-(2-(4-(trifluoromethoxy)benzylidene)hydrazinyl)-N-(4-(trifluoromethoxy)phenyl)-1,3,5-triazin-2-amine] | 26 to 50
7 | Fc1cccc(F)c1-c1nc(NN=Cc2ccc(OC(F)(F)F)cc2)nc(Nc2cccc(C(F)(F)F)c2)n1 [Example 7, 4-(2,6-difluorophenyl)-6-(2-(4-(trifluoromethoxy)benzylidene)hydrazinyl)-N-(3-(trifluoromethyl)phenyl)-1,3,5-triazin-2-amine] | 0 to 25
8 | Fc1cccc(F)c1-c1nc(NCc2ccc(Cl)nc2)nc(NN=Cc2ccc(OC(F)(F)F)cc2)n1 [Example 8, N-((6-chloropyridin-3-yl)methyl)-4-(2,6-difluorophenyl)-6-(2-(4-(trifluoromethoxy)benzylidene)hydrazinyl)-1,3,5-triazin-2-amine] | 76 to 100
9 | Fc1cccc(F)c1-c1nc(NN=Cc2ccc(OC(F)(F)F)cc2)nc(Nc2ccc(Cl)nc2)n1 [Example 9, N-(6-chloropyridin-3-yl)-4-(2,6-difluorophenyl)-6-(2-(4-(trifluoromethoxy)benzylidene)hydrazinyl)-1,3,5-triazin-2-amine] | 76 to 100
10 | Fc1cccc(F)c1-c1nc(NN=Cc2ccc(OC(F)(F)C(F)F)cc2)nc(Nc2ccc(Cl)cc2)n1 [Example 10, N-(4-chlorophenyl)-4-(2,6-difluorophenyl)-6-(2-(4-(1,1,2,2-tetrafluoroethoxy)benzylidene)hydrazinyl)-1,3,5-triazin-2-amine] | 76 to 100
11 | Fc1cccc(Cl)c1-c1nc(NN=Cc2ccc(OC(F)(F)C(F)F)cc2)nc(Nc2ccc(Cl)cc2)n1 [Example 11, 4-(2-chloro-6-fluorophenyl)-N-(4-chlorophenyl)-6-(2-(4-(1,1,2,2-tetrafluoroethoxy)benzylidene)hydrazinyl)-1,3,5-triazin-2-amine] | 76 to 100
12 | Fc1cccc(Cl)c1-c1nc(NN=Cc2ccc(OC(F)(F)C(F)F)cc2)nc(Nc2ccc(Cl)nc2)n1 [Example 12, 4-(2-chloro-6-fluorophenyl)-N-(6-chloropyridin-3-yl)-6-(2-(4-(1,1,2,2-tetrafluoroethoxy)benzylidene)hydrazinyl)-1,3,5-triazin-2-amine] | 76 to 100
13 | Fc1cccc(Cl)c1-c1nc(NN=Cc2ccc(OC(F)(F)F)cc2)nc(Nc2ccc(Cl)nc2)n1 [Example 13, 4-(2-chloro-6-fluorophenyl)-N-(6-chloropyridin-3-yl)-6-(2-(4-(trifluoromethoxy)benzylidene)hydrazinyl)-1,3,5-triazin-2-amine] | 76 to 100
14 | FC(F)(F)Oc1ccc(C=NNc2nc(Nc3ccc(Cl)cc3)nc(-c3c(Cl)cccc3Cl)n2)cc1 [Example 14, N-(4-chlorophenyl)-4-(2,6-dichlorophenyl)-6-(2-(4-(trifluoromethoxy)benzylidene)hydrazinyl)-1,3,5-triazin-2-amine] | 51 to 75
15 | Fc1cccc(F)c1-c1nc(NN=Cc2ccc(OC(F)(F)C(F)F)cc2)nc(Nc2ccc(Cl)nc2)n1 [Example 15, N-(6-chloropyridin-3-yl)-4-(2,6-difluorophenyl)-6-(2-(4-(1,1,2,2-tetrafluoroethoxy)benzylidene)hydrazinyl)-1,3,5-triazin-2-amine] | 76 to 100
16 | FC(F)(F)Oc1ccc(C=NNc2nc(Nc3ccc(Cl)nc3)nc(-c3c(Cl)cccc3Cl)n2)cc1 [Example 16, N-(6-chloropyridin-3-yl)-4-(2,6-dichlorophenyl)-6-(2-(4-(trifluoromethoxy)benzylidene)hydrazinyl)-1,3,5-triazin-2-amine] | 76 to 100
17 | CCc1ccc(C=NNc2nc(Nc3ccc(Cl)cc3)nc(-c3c(F)cccc3Cl)n2)cc1 [Example 17, 4-(2-chloro-6-fluorophenyl)-N-(4-chlorophenyl)-6-(2-(4-ethylbenzylidene)hydrazinyl)-1,3,5-triazin-2-amine] | 76 to 100
18 | N#Cc1ccc(C=NNc2nc(Nc3ccc(Cl)cc3)nc(-c3c(F)cccc3Cl)n2)cc1 [Example 18] | 76 to 100
19 | CCCC=NNc1nc(Nc2ccc(Cl)cc2)nc(-c2c(F)cccc2Cl)n1 [Example 19, 4-(2-butylidenehydrazinyl)-6-(2-chloro-6-fluorophenyl)-N-(4-chlorophenyl)-1,3,5-triazin-2-amine] | 76 to 100
20 | Fc1cccc(Cl)c1-c1nc(NN=CCc2ccccc2)nc(Nc2ccc(Cl)cc2)n1 [Example 20, 4-(2-chloro-6-fluorophenyl)-N-(4-chlorophenyl)-6-(2-(2-phenylethylidene)hydrazinyl)-1,3,5-triazin-2-amine] | 76 to 100
21 | CC(=NNc1nc(Nc2ccc(Cl)cc2)nc(-c2c(F)cccc2Cl)n1)c1ccc(OC(F)(F)F)cc1 [Example 21, 4-(2-chloro-6-fluorophenyl)-N-(4-chlorophenyl)-6-(2-(1-(4-(trifluoromethoxy)phenyl)ethylidene)hydrazinyl)-1,3,5-triazin-2-amine] | 76 to 100
22 | Fc1cccc(Cl)c1-c1nc(NCc2ccc(Cl)nc2)nc(NN=Cc2ccc(OC(F)(F)F)cc2)n1 [Example 22, 4-(2-chloro-6-fluorophenyl)-N-((6-chloropyridin-3-yl)methyl)-6-(2-(4-(trifluoromethoxy)benzylidene)hydrazinyl)-1,3,5-triazin-2-amine] | 76 to 100
23 | Cc1ccc(Nc2nc(NN=Cc3ccc(OC(F)(F)F)cc3)nc(-c3c(F)cccc3Cl)n2)cc1 [Example 23, 4-(2-chloro-6-fluorophenyl)-N-(p-tolyl)-6-(2-(4-(trifluoromethoxy)benzylidene)hydrazinyl)-1,3,5-triazin-2-amine] | 76 to 100
24 | Fc1cccc(Cl)c1-c1nc(NCCN2CCOCC2)nc(NN=Cc2ccc(OC(F)(F)F)cc2)n1 [Example 24, 4-(2-chloro-6-fluorophenyl)-N-(2-morpholinoethyl)-6-(2-(4-(trifluoromethoxy)benzylidene)hydrazinyl)-1,3,5-triazin-2-amine] | 76 to 100
25 | CN(C)Nc1nc(NN=Cc2ccc(OC(F)(F)F)cc2)nc(-c2c(F)cccc2Cl)n1 [Example 25, 2-(2-chloro-6-fluorophenyl)-4-(2,2-dimethylhydrazinyl)-6-(2-(4-(trifluoromethoxy)benzylidene)hydrazinyl)-1,3,5-triazine] | 76 to 100
26 | Fc1cccc(Cl)c1-c1nc(NCC2CCOC2)nc(NN=Cc2ccc(OC(F)(F)F)cc2)n1 (stereo not shown) [Example 26, 4-(2-chloro-6-fluorophenyl)-N-((tetrahydrofuran-3-yl)methyl)-6-(2-(4-(trifluoromethoxy)benzylidene)hydrazinyl)-1,3,5-triazin-2-amine] | 0 to 25
27 | FC(F)(F)Oc1ccc(C=NNc2nc(Nc3ccc(Cl)cc3)nc(-c3c(Cl)cc(Cl)cc3Cl)n2)cc1 [Example 27, N-(4-chlorophenyl)-4-(2,4,6-trichlorophenyl)-6-(2-(4-(trifluoromethoxy)benzylidene)hydrazinyl)-1,3,5-triazin-2-amine] | 0 to 25
28 | NCCNc1nc(NN=Cc2ccc(OC(F)(F)F)cc2)nc(-c2c(F)cccc2Cl)n1 [Example 28, N1-(4-(2-chloro-6-fluorophenyl)-6-(2-(4-(trifluoromethoxy)benzylidene)hydrazinyl)-1,3,5-triazin-2-yl)ethane-1,2-diamine] | 0 to 25
